This is an account of results in patent US7084140B2, “Arylglycinamide derivatives, method of producing said derivatives and pharmaceutical compositions containing these compounds” (Boehringer Ingelheim Pharma GmbH & Co. KG, priority 1996, dated 2006).

Structures can show the parent of a compound that is named as a salt.

A word on the Ki: it is the equilibrium dissociation constant of an inhibitor or competing ligand from its target.

Assay [1] concerns the target T1, NK1 (Cavia porcellus, UniProt P30547).
T1 construct: from tissue; host or cells: whole animal (anaesthetised guinea pig)
The assay can be described thus: Inhibition of lowering of blood pressure caused by NK1 in anaesthetised guinea pigs. In kind it is in vivo. The conditions noted are these: 1 mg/kg administered into the duodenum, NK1-agonist [βAla4, Sar9, Met(O2)11]SP(4-11) 0.2 μmol/kg i.v. As to the method: Inhibition of lowering of blood pressure caused by NK1 in anaesthetised guinea pigs.
Guinea pigs weighing 300–500 grams were anaesthetised with pentobarbital (50 mg/kg i.p.), intubated and artificially ventilated. They were ventilated with 10 ml/kg of air at a frequency of 60 breaths per minute. The carotid artery was canulated and the arterial blood pressure was recorded. A polyethylene tube was inserted into the jugular vein for the intravenous supply of substances.
A temporary reduction in blood pressure was brought about at intervals of 10 minutes by intravenous administration of the NK1-agonist [βAla^4, Sar^9, Met (O2)^11]Sp(4-11)
[drawing 30] in a dose of 0.2 μmol/kg. After the blood pressure thus produced had been measured, the test compound was introduced into the duodenum and the NK1-agonist was again injected every 10 minutes.
The results were expressed as a % inhibition of the reduction in blood pressure caused by the NK1-agonist specified.

Assay [2] deals with T2, NK1-receptor (substance P-receptor) (Homo sapiens, UniProt P25103).
T2 construct: expressed in transfected cells; host or cells: IM-9 human lymphoblastoma cells
T2 sequence (P25103 whole entry): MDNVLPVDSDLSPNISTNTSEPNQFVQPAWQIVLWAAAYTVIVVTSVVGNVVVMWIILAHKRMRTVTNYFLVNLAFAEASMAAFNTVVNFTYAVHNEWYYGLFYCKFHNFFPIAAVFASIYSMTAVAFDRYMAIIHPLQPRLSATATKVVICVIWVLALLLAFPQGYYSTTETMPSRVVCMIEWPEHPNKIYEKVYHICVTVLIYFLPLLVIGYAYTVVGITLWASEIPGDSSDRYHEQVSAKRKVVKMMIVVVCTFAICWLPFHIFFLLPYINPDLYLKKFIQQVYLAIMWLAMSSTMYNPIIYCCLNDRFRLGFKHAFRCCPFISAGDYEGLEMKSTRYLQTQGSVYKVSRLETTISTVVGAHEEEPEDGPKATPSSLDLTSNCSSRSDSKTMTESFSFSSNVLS
Put plainly: Receptor affinity for the NK1-receptor, displacement of 125I-labelled substance P on IM-9 cells. The format is binding. Conditions: human lymphoblastoma cells (IM-9) with cloned NK1-receptors. As to the method: The receptor affinity for the NK1-receptor (substance P-receptor) is determined on human lymphoblastoma cells (IM-9) with cloned NK1-receptors, by measuring the displacement of ^125I-labelled substance P. The K1-values thus obtained show the efficacy of the compounds: […]

T1 sequence (P30547 whole entry): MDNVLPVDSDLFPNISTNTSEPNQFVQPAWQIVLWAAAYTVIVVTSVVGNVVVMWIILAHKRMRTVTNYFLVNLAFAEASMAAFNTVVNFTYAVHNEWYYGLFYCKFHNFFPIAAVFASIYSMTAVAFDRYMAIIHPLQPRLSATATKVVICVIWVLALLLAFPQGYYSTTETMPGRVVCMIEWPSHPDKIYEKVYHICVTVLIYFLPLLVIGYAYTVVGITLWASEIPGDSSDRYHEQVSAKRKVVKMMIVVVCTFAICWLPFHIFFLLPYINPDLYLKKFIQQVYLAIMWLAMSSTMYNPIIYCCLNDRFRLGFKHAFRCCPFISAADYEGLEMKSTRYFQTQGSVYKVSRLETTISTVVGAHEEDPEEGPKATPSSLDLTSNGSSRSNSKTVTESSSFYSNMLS

On to `CC(C)N1CCN(C(C(=O)N(C)CCc2cc(C(F)(F)F)cc(C(F)(F)F)c2)c2ccccc2)CC1` (racemic) [Example 1, (R,S)-1-i-propyl-4-[2-phenylacetic acid-N-methyl-N-(3,5-bistrifluoromethylphenylethyl)]-amide dihydrochloride], for which the “% inhibition of the reduction in blood pressure caused by the NK1-agonist” value in assay [1] is on record as 80%. For the same compound, affinity in assay [2] was put at a Ki of 1.2 nM.
The compound `CN(CCc1cc(C(F)(F)F)cc(C(F)(F)F)c1)C(=O)C(c1ccccc1)N1CCNCC1` (stereo not drawn) [Example 2] came in with an inhibition constant Ki in assay [2] of 1 nM.
Same read-out and setting: as for `CN(CCc1cc(C(F)(F)F)cc(C(F)(F)F)c1)C(=O)C(c1ccccc1)N1CCN(c2ncccn2)CC1` (stereo not drawn) [Example 3], the figure is 19 nM.
On the same count and under the same terms, under `CN1CCCN(C(C(=O)N(C)CCc2cc(C(F)(F)F)cc(C(F)(F)F)c2)c2ccccc2)CC1` (stereo not drawn) [Example 4] stands 1.4 nM; under `CN(CCc1cc(C(F)(F)F)cc(C(F)(F)F)c1)C(=O)C(c1ccccc1)N1CCC(N(C)C)CC1` (stereo not drawn) [Example 5], 1.5 nM; under `CN1CCN(C2CCN(C(C(=O)N(C)CCc3cc(C(F)(F)F)cc(C(F)(F)F)c3)c3ccccc3)CC2)CC1` (stereo not drawn) [Example 8], 1.8 nM.
Compound `CN1CCC(N2CCN(C(C(=O)N(C)CCc3cc(C(F)(F)F)cc(C(F)(F)F)c3)c3ccccc3)CC2)CC1` (stereo not drawn) [Example 9] gave a Ki in assay [2] of 2.5 nM.
In turn, `CN(CCc1cc(C(F)(F)F)cc(C(F)(F)F)c1)C(=O)C(c1ccccc1)N1CCN(CC(=O)N2CCCC2)CC1` (stereo not drawn) [Example 11] yielded a Ki in assay [2] of 3.8 nM.
Same read-out and setting: under `CN(CCc1cc(C(F)(F)F)cc(C(F)(F)F)c1)C(=O)C(c1ccccc1)N1CCC(N2CCN(CC(N)=O)CC2)CC1` (stereo not drawn) [Example 12] stands 5 nM.
Turning to `CN(CCc1cc(C(F)(F)F)cc(C(F)(F)F)c1)C(=O)C(c1ccccc1)N1CCC(N2CCC(N3CCCCC3)CC2)CC1` (stereo not drawn) [Example 13], the Ki in assay [2] came out at 2.4 nM.
The same measure, in the same setting: as for `CCN(CC)C1CCN(C(C(=O)N(C)CCc2cc(C(F)(F)F)cc(C(F)(F)F)c2)c2ccccc2)CC1` (stereo not drawn) [Example 15], the figure is 0.98 nM.
On the same count and under the same terms, under `CN(CCc1cc(C(F)(F)F)cc(C(F)(F)F)c1)C(=O)C(c1ccccc1)N1CCC(N(C)CCO)CC1` (stereo not drawn) [Example 16] stands 0.9 nM; under `CN(CCc1cc(C(F)(F)F)cc(C(F)(F)F)c1)C(=O)C(c1ccccc1)N1CCC(N)CC1` (stereo not drawn) [Example 17], 7.75 nM.
On the same count and under the same terms, under `CNC1CCN(C(C(=O)N(C)CCc2cc(C(F)(F)F)cc(C(F)(F)F)c2)c2ccccc2)CC1` (stereo not drawn) [Example 18] stands 0.96 nM.
`CN(CCc1cc(C(F)(F)F)cc(C(F)(F)F)c1)C(=O)C(c1ccccc1)N1CCC(NC2CCCC2)CC1` (stereo not drawn) [Example 19]: the Ki in assay [2] was determined as 1.17 nM.
Still for that read-out and setting: under `CC(C)NC1CCN(C(C(=O)N(C)CCc2cc(C(F)(F)F)cc(C(F)(F)F)c2)c2ccccc2)CC1` (stereo not drawn) [Example 20] stands 2 nM; under `CN(CCc1cc(C(F)(F)F)cc(C(F)(F)F)c1)C(=O)C(c1ccccc1)N1CCC(O)CC1` (stereo not drawn) [Example 22], 2.2 nM; under `CN(CCc1cc(C(F)(F)F)cc(C(F)(F)F)c1)C(=O)C(c1ccccc1)N1CCC(NCC(=O)N2CCOCC2)CC1` (stereo not drawn) [Example 23], 2.5 nM.
Still for that read-out and setting: as for `C=CCN1CCN(C(C(=O)N(C)CCc2cc(C(F)(F)F)cc(C(F)(F)F)c2)c2ccccc2)CC1` (stereo not drawn) [Example 24], the figure is 2.2 nM.
On to `C#CCN1CCN(C(C(=O)N(C)CCc2cc(C(F)(F)F)cc(C(F)(F)F)c2)c2ccccc2)CC1` (stereo not drawn) [Example 25], for which, in assay [2], the affinity, expressed as Ki, was 6 nM.
The same measure, in the same setting: under `CN(CCc1cc(C(F)(F)F)cc(C(F)(F)F)c1)C(=O)C(c1ccccc1)N1CCN(CCO)CC1` (stereo not drawn) [Example 26] stands 1.6 nM; under `CN(C)CCN1CCN(C(C(=O)N(C)CCc2cc(C(F)(F)F)cc(C(F)(F)F)c2)c2ccccc2)CC1` (stereo not drawn) [Example 28], 1.3 nM.
Still for that read-out and setting: as for `COCCN1CCN(C(C(=O)N(C)CCc2cc(C(F)(F)F)cc(C(F)(F)F)c2)c2ccccc2)CC1` (stereo not drawn) [Example 30], the figure is 1.8 nM; as for `CC(C)N1CCN(C(C(=O)N(C)CCc2cc(C(F)(F)F)cc(C(F)(F)F)c2)c2ccccc2)CC1=O` (stereo not drawn) [Example 32], 1.3 nM.
The same measure, in the same setting: under `CC(C)N1CCN(C(C(=O)NC(C)(C)Cc2cc(C(F)(F)F)cc(C(F)(F)F)c2)c2ccccc2)CC1` (stereo not drawn) [Example 33] stands 7.4 nM; under `CC(C)(Cc1cc(C(F)(F)F)cc(C(F)(F)F)c1)NC(=O)C(c1ccccc1)N1CCNCC1` (stereo not drawn) [Example 34], 2.9 nM.
As to `COc1ccc(C(C(=O)N(C)CCc2cc(C(F)(F)F)cc(C(F)(F)F)c2)N2CCNCC2)cc1OC` (stereo not drawn) [Example 47], in assay [2], the Ki came out at 1.7 nM.
Same read-out and setting: as for `CN(CCc1cc(C(F)(F)F)cc(C(F)(F)F)c1)C(=O)C(c1ccccc1)N1CCC(N(CCO)CCO)CC1` (stereo not drawn) [Example 55], the figure is 1.25 nM.
The same measure, in the same setting: as for `CCCN1CCN(C(C(=O)N(C)CCc2cc(C(F)(F)F)cc(C(F)(F)F)c2)c2ccccc2)CC1` (stereo not drawn) [Example 63], the figure is 1.4 nM.
On the same count and under the same terms, under `CN1CCN(C(C(=O)N(C)CCc2cc(C(F)(F)F)cc(C(F)(F)F)c2)c2ccccc2)CC1` (stereo not drawn) [Example 64] stands 1.1 nM; under `COc1ccc(C(C(=O)N(C)CCc2cc(C(F)(F)F)cc(C(F)(F)F)c2)N2CCN(C(C)C)CC2)cc1OC` (stereo not drawn) [Example 65], 5.7 nM.
In assay [2], `CC(C)N1CCN(C(C(=O)N(C)CCc2cc(C(F)(F)F)cc(C(F)(F)F)c2)c2cccc3c2OCO3)CC1` (stereo not drawn) [Example 73] came in with an inhibition constant (Ki) of 2 nM. Compared with the last compound, the Ki is about 2.9-fold lower.
On the same count and under the same terms, as for `CC(C)N1CCN(C(C(=O)N(C)CCc2cc(C(F)(F)F)cc(C(F)(F)F)c2)c2ccccc2)CC1` (stereo not drawn) [Example 74], the figure is 1.5 nM.
Same read-out and setting: under `CN(CCc1cc(C(F)(F)F)cc(C(F)(F)F)c1)C(=O)[C@H](c1ccccc1)N1CCNCC1` [Example 75] stands 0.44 nM; under `CN(CCc1cc(C(F)(F)F)cc(C(F)(F)F)c1)C(=O)C(c1ccccc1)N1CCC(N(C)CCCCO)CC1` (stereo not drawn) [Example 76], 2 nM.
